# Experimental data reported in patent US20030194719A1, “Tpst-assay for diagnosis of autism and related disorders” (priority 2000, published 2003).
# Key:
# [1] = system: TPST; conditions: human alcoholics; cited from earlier work
# [2] = system: Tyrosyl protein sulphotransferase (TPST); assay: TPST activity assay in platelets from normal healthy blood donors (35S transfer from PAPS35 to EAY substrate); format: biochemical, human; conditions: for Effect on TPST activity (in words): Example 2, concentrations as in Table 2; for TPST activity (0 μM = 100): Table 7
# Description: The activity of sulphotransferases can be measured by monitoring the transfer of ^35S from the sulphate donor, PAPS^35, to the product, in this case the synthetic tyrosine substrate EAY. This assay uses platelets from control subjects (n=5) and those patients suffering from a particular disorder, selected from autism (n=14), irritable bowel syndrome (n=3) schizophrenia (gluten-sensitive)(n=4), food allergy (gluten, milk) (n=3) and depression (n=2).
# Reaction mixtures were incubated for 50 minutes at 37° C. and reactions were stopped by barium acetate. Unreacted sulphate, proteins and nucleotides were precipitated by zinc sulphate and barium hydroxide. Within the reaction there is a positive and negative control. The positive control is termed 100%, and represents the total amount of radioactivity present in the hot PAPS^35 sample. The negative control is the “no-enzyme” reaction, this represents the amount of sulphate transferred to the product when no enzyme is present, i.e. the chemical reaction. The blank for the reaction is made up without PAPS^35 and without enzyme.
# 10 ml of whole blood was taken from patients and the blood cells removed. The remaining plasma was centrifuged at 8000 g for 5 mins to sediment the platelets. This platelet pellet was resuspended in 5 ml 10 mM phosphate buffered saline (PBS) containing 10 mM EDTA, recentrifuged at 2000 g at 4° C. for 30 min. […] The platelets were sonicated for 12×10 second bursts at 4° C. The platelet sonicates were stored in 1 ml portions at −70° C. prior to use.
# Substrate: 10 μl EAY (300 μM; poly (Glu, Ala, Tyr) 6:3:1) was used in each test assay, to give a final concentration in the reaction of 20 μM. This solution was made up in MES reaction buffer.
# Reaction mixtures were made up as in the table above. To begin the assay, platelet homogenate (20 μl) and PAPS^35 (20 μl) were added at 30-second intervals to a final volume of 150 μl. The reaction mixture was then incubated at 37° C. for 40 min. The reaction is stopped by the addition of 200 μl-barium acetate (0.1 M) and the tubes were vortexed and placed on ice for […].
# Unreacted sulphate was then precipitated by the addition of 0.1 M zinc sulphate (200 μl) and 0.1 M barium hydroxide (200 μl). The tubes were vortexed and centrifuged at 6500 rpm for 3 min.
# Repeat step 3. Supernatant (500 μl) was then added to scintillation fluid (3.5 ml) and S^35 was counted in a Phillips scintillation counter.
# Various compounds were investigated, including fatty acids, flavonoids and amino acids. […] Compounds were tested at the concentrations shown and were dissolved in buffer where possible or ethanol if not.
# In the Example shown in Table 6 and FIG. 6 compounds were all dissolved in DMSO and tested at 25 μM.
# [3] = system: TPST; conditions: stomach and liver of ethanol-fed male Sprague-Dawley rats; cited from earlier work
# [4] = system: TPST; conditions: PC12 cells; cited from earlier work
# [5] = Table 2, 100 μM, normal human platelets
structure (smiles),measurement,setting,value
CCO [Ethanol],TPST enzyme activity versus normal individuals,[1],two- to three-fold higher
same,Effect on TPST activity (in words),[2]; normal human platelets,stimulation of activity
same,% Control TPST Activity,"[2]; Table 2, 0.4%, normal human platelets",177%
same,Increase of TPST level,[3],over three-fold
[Mn+2] [Manganese],Effect on TPST activity,[4],suppresses TPST activity
O=c1c(O)c(-c2ccc(O)c(O)c2)oc2cc(O)cc(O)c12 [Quercetin],% Control TPST Activity,[2]; [5],3%
same,% Control TPST Activity,"[2]; Table 6, 25 μM, dissolved in DMSO, human platelets",48%
same,TPST activity (0 μM = 100),[2]; flavonoid 0.5 μM,45.8
same,TPST activity (0 μM = 100),[2]; flavonoid 1 μM,33.7
same,TPST activity (0 μM = 100),[2]; flavonoid 2.5 μM,25.7
same,TPST activity (0 μM = 100),[2]; flavonoid 5 μM,21.1
same,TPST activity (0 μM = 100),[2]; flavonoid 10 μM,9.5
same,TPST activity (0 μM = 100),[2]; flavonoid 25 μM,5
same,TPST activity (0 μM = 100),[2]; flavonoid 50 μM,0.9
same,TPST activity (0 μM = 100),[2]; flavonoid 100 μM,0
O=C(O)CCC(=O)O [Succinate],Effect on TPST activity (in words),[2]; normal human platelets,decreasing sulphation
same,% Control TPST Activity,[2]; [5],59%
